For test [1], the target named is T1, RnfG (Methanosarcina acetivorans, UniProt Q8TSY2, T166G).
T1 construct: full-length membrane subunit with C-terminal His6 tag (vector leader removed), made in E. coli LMG194, purified from membranes in dodecyl maltoside; isolated subunit of the Rnf complex
The test is described as follows: protein colour and UV fluorescence of the purified variant. Type of test: binding. Particulars: removal of the covalent FMN attachment residue.

In test [2] the target is T2, RnfG (Methanosarcina acetivorans, UniProt Q8TSY2).
T2 construct: full-length membrane subunit with C-terminal His6 tag (vector leader removed), made in E. coli LMG194, purified from membranes in dodecyl maltoside; isolated subunit of the Rnf complex
T2 sequence (Q8TSY2 whole entry): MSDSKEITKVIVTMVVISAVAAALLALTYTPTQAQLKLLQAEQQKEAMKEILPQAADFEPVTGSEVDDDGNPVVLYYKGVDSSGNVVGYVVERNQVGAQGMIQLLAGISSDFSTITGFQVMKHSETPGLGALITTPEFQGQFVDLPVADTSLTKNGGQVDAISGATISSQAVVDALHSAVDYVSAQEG
The test is described as follows: UV-visible absorbance of purified protein; UV fluorescence in SDS-PAGE gel; boiling and TCA treatment. Type of test: binding. The note with it: covalent (flavin assigned as FMN, attached at Thr166); 25 µM protein, 25 mM Tris-HCl pH 8.

T1 sequence (Q8TSY2 whole entry T166G): as the sequence (Q8TSY2 whole entry) above, with T166G counted along it

In the case of `Cc1cc2nc3c(=O)[nH]c(=O)nc-3n(C[C@H](O)[C@H](O)[C@H](O)COP(=O)(O)O)c2cc1C` [FMN], the colour and fluorescence entry on RnfG [1] was “The purified variant was colorless and failed to fluoresce under UV illumination”. Also, the “molar ratio of flavin” value on RnfG [2] is listed as 0.84 mol/mol.

For the origin of these results see article PMC4023990, “Characterization of the RnfB and RnfG Subunits of the Rnf Complex from the Archaeon Methanosarcina acetivorans” (PLoS ONE, 2014).
